Source: patent US10174013B2, “Benzimidazole derivatives as kinase inhibitors” (SELVITA S.A., priority 2012, dated 2019)
Where two headings read alike, the source gives them in different places.

Assays:
Pim-1 = Pim-1 (Homo sapiens (Human), UniProt P11309); test: ADP-Glo Kinase Assay, Pim-1; format: biochemical; details: 1 μM compound; for inhibition at 1 µM: read-out: Pim-1 % INH (1 μM)
In short: (§1)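 Compounds were diluted in assay buffer to 1000 nM and incubated with kinase, substrate and ATP at apparent Km. Remaining ATP was depleted, ADP converted to ATP and detected by luciferase; percent inhibition came from normalized luminescence.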

Pim-2 = Pim-2 (Homo sapiens (Human), UniProt Q9P1W9); test: ADP-Glo Kinase Assay, Pim-2; format: biochemical; details: 1 μM compound; for inhibition at 1 µM: read-out: Pim-2 % INH (1 μM)
In short: as §1

Pim-3 = Pim-3 (Homo sapiens (Human), UniProt Q86V86); test: ADP-Glo Kinase Assay, Pim-3; format: biochemical; details: 1 μM compound; for inhibition at 1 µM: read-out: Pim-3 % INH (1 μM)
In short: as §1

FLT3wt = FLT3wt (Homo sapiens (Human), UniProt P36888); test: ADP-Glo Kinase Assay, Flt3 wt; format: biochemical; details: 1 μM compound; for inhibition at 1 µM: read-out: Flt3wt % INH (1 μM)
In short: as §1

CDK2/E = CDK2/E (Homo sapiens (Human), UniProt P24941); test: ADP-Glo Kinase Assay, CDK2/E; format: biochemical; details: 1 μM compound; for inhibition at 1 µM: read-out: CDK2/E % INH (1 μM)
In short: as §1

DYRK1 = DYRK1 (Homo sapiens (Human), UniProt Q13627); test: ADP-Glo Kinase Assay, DYRK1; format: biochemical; details: 1 μM compound; for inhibition at 1 µM: read-out: DYRK1A % INH (1 μM)
In short: as §1

MV4-11 cells = test: Growth inhibition, MTS assay, MV4-11; format: cell-based, Human; details: MTS cell viability, read-out: MV4-11 ED50
HEL92 cells = test: Growth inhibition, MTS assay, HEL92; format: cell-based, Human; details: MTS cell viability, read-out: HEL92 ED50
HepG2 cells = test: Growth inhibition, MTS assay, HepG2; format: cell-based, Human; details: MTS cell viability, read-out: HepG2 ED50
Jeko-1 cells = test: Growth inhibition, MTS assay, Jeko-1; format: cell-based, Human; details: 72 hours, MTS cell viability, read-out: Jeko-1 ED50
MOLM13 cells = test: Growth inhibition, MTS assay, MOLM13; format: cell-based, Human; details: 72 hours, MTS cell viability, read-out: MOLM 13 ED50
From the text: (§2) The following cell lines, were obtained and used in tests as outlined below: • Human myelomonocytic, biphenotypic leukemia MV4-11 cells (harboring a Flt3-ITD mutation); • Human Acute Myeloid Leukemia MOLM16 cells; • Human Acute Myeloid Leukemia MOLM13 cells (harboring a Flt3-ITD mutation); • Human Myeloid Leukemia KG-1 cells; • Human erythroleukemia HEL92 cells; • Human mantle cell lymphoma Jeko-1 cells; • Human hepatocellular carcinoma HepG2 cells; and • Human colon adenocarcinoma SW-480 cells.
(§3) The assays were carried out according to the following protocol, which is described as an example for the MV4-11 cells:
(§4) Ten thousand MV4-11 cells were inoculated into each well of a 96-well microplate (manufactured by Corning Corp.) using Iscove's MDM medium (culture medium) containing 10% fetal calf serum (FCS). The same day, a dimethyl sulfoxide (DMSO) solution of each test compound prepared in a concentration of 10 mmol/L was further diluted with DMSO to the desired concentrations (0.1, 0.5, 1, 2.5, 5 and 10 micromol/L), and the diluted solution was added to each well. The individual wells were further cultured in 5% carbon dioxide at 37° C. for 72 hours. […] Briefly, 10 μl MTS (3-(4,5-Dimethyl-2-thiazolyl)-5-(carboxymethoxyphenyl)-2-(4-sulfophenyl)-2H-tetrazolium was added to each well, and culturing was performed in 5% carbon dioxide at 37° C. for 2 hours. After this incubation and using a microplate spectrophotometer (Synergy 2 multi-mode microplate reader (BioTek)), the absorbance of each well was measured at 490 nm. The value for cells not incubated with a test compound was designated as 100%. By comparing these values with the absorbance difference obtained at the well in which each test compound was added, the cell viability (% viability) after treatment with the test compound was calculated.

hERG potassium channel = hERG potassium channel (Homo sapiens (Human), UniProt Q12809); test: hERG automated patch clamp assay (QPatch HT)
In short: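 Automated whole-cell patch clamp of hERG current in mammalian cells at room temperature. Compounds applied at 0.1, 1, 3, 10 and 30 μM, 3 min per concentration, n≥2 cells each.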

CYP3A4 = CYP3A4 (Homo sapiens (Human), UniProt P08684); test: Cytochrome P450 inhibition, fluorescence, CYP3A4; format: in vitro ADME; details: recombinant CYP3A4, fluorescence detection; read-out: CYP inhibition (CYP 3A4 screening, IC50 class)
Protocol: The assays for cytochrome P450 inhibition facilitate the identification of drug candidates with lower potential for drug-drug interactions (weak enzymes inhibitors). In vitro experiments were conducted to determine whether a drug inhibits a specific CYP enzyme. The experiments comprised the incubation of the drug with probe substrates for the CYP enzymes, wherein the following recombinant cytochrome P450 isoforms were employed: CYP1A2, CYP2C8, CYP2C9, CYP2C19, CYP2D6 and CYP3A4, together with various probe substrates enabling fluorescence detection. The protocol uses a single substrate concentration near the apparent Km and multiple compound concentrations.
The assay was performed in 96-well microtiter plates. The row designations were A through H and the column designations were 1 through 12. […] Each compound (see Table 6 for tested compounds) was added to the wells in column 1 and serially diluted to the wells in column 8. Wells 9 and 10 were control wells which contained no test compound (therefore no inhibition-full signal is detected.) The wells in columns 11 and 12 were blanks, where STOP solution was added prior to the addition of the enzyme/substrate mix to the NADPH regenerating system (the only signal present in these wells is background noise.) The assay was conducted in a final volume of 0.2 ml per well.
The stock solutions of the tested compounds were prepared in DMSO at 10 mM concentration. […] After mixing the compounds with solution containing NADPH-cofactors, the mixed plate was preincubated in a 37° C. incubator for at least 10 minutes; next, the fluorescence of compounds using recommended excitation/emission filters was measured in order to eliminate false results originating from autofluorescence of the compounds. In the following step, the enzyme/substrate mix was added to columns 1 through 10 and the plates were incubated at 37° C. for specific times depending on the CYP tested (incubation times ranged from 30 to 45 minutes). After adding STOP SOLUTION to all wells and respective enzyme/substrate mix to the wells in columns 11 and 12, the plate was scanned with a fluorescent plate scanner. The excitation/emission filters used for the specific assays are described in the GenTest Screening Kit instruction manual.

MOLM16 cells = test: Growth inhibition, MTS assay, MOLM16; format: cell-based, Human; details: Homo sapiens, MOLM16, 72 h, MTS cell viability, read-out: MOLM 16 ED50
KG-1 cells = test: Growth inhibition, MTS assay, KG-1; format: cell-based, Human; details: 72 hours, MTS cell viability
From the text: as §2, §3, §4

FLT3-ITD = test: ADP-Glo Kinase Assay, Flt3 ITD; format: biochemical, Human; details: 1 μM compound
Protocol: Compounds of the present invention were tested for their inhibitory activity against Pim-1, Pim-2, Pim-3, Flt3 wt, Flt3 ITD, CDK2/E and DYRK1. The testing of the compounds was carried out using the ADP-Glo™ Kinase Assay from Promega Corporation (Madison, Wis., USA).
The ADP-Glo™ Kinase Assay is a luminescent ADP detection assay to measure kinase activity by quantifying the amount of ADP produced during a kinase reaction. The kinase assay is performed in kinase assay buffer (5 mM MOPS, pH 7.5, 5 mM MgCl2, 0.4 mM EDTA, 1.5 mM DTT). Test samples initially dissolved in DMSO at 10 mM were diluted with the assay buffer to 1000 nM. A 30 μL volume/well of a mixture of substrates containing ATP (final ATP concentration in each kinase assay was equal to its apparent ATP Km).
The assay was performed in two steps: first, after the kinase reaction, an equal volume of ADP-Glo™ Reagent was added to terminate the kinase reaction and deplete the remaining ATP. Second, the Kinase Detection Reagent was added to simultaneously convert ADP to ATP and allowed the newly synthesized ATP to be measured using a luciferase/luciferin reaction. The luminescent signal generated was proportional to the ADP concentration produced and was correlated with kinase activity. A microplate spectrophotometer (Synergy 2 multi-mode microplate reader [BioTek]) was used for detecting the luminescence. The data was normalized and the percent of inhibition was obtained according to the following equation: […]

Pim-1, sequence (P11309 whole entry): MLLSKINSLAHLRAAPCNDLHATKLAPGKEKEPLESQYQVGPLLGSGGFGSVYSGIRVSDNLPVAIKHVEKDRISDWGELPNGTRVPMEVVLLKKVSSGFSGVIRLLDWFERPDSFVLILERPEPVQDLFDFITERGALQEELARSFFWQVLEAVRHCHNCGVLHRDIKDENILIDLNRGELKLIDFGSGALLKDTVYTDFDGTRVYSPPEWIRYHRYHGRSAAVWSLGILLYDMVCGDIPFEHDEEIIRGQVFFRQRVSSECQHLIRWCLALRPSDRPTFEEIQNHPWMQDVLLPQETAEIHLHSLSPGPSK
FLT3wt, sequence (P36888 27-993): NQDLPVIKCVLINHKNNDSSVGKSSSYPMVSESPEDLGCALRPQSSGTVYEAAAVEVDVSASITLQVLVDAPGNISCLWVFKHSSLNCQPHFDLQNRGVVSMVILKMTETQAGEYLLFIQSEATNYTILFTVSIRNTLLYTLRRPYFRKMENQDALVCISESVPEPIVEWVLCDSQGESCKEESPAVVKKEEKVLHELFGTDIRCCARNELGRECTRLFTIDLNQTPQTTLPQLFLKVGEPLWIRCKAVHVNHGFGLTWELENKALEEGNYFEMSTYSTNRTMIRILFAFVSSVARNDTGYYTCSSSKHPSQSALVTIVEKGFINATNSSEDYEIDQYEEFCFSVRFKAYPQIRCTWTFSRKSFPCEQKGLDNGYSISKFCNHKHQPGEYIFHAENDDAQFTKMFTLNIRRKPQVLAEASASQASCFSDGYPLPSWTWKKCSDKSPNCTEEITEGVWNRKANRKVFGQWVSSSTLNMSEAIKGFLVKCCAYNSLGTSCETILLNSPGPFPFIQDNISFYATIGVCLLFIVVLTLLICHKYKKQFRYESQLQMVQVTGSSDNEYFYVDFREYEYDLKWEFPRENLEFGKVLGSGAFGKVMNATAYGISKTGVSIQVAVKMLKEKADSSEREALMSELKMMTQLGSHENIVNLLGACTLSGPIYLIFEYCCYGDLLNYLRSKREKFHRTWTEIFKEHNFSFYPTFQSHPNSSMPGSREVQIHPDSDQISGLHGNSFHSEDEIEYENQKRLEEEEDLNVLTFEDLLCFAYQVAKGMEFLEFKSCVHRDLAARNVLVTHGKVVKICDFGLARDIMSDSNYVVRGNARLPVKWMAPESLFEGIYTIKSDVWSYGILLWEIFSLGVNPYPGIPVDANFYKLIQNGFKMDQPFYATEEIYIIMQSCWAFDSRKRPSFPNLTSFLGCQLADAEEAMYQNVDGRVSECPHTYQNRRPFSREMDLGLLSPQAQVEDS
Pim-2, sequence (Q9P1W9 whole entry): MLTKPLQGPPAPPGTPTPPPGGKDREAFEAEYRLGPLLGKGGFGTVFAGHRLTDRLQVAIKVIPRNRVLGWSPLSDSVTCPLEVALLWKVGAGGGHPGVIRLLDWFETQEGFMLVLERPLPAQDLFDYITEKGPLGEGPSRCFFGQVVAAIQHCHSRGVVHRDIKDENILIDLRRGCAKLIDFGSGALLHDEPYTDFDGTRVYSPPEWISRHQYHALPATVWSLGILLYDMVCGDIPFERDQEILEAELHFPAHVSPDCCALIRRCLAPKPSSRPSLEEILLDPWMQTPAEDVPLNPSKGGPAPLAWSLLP
hERG potassium channel, sequence (Q12809 whole entry): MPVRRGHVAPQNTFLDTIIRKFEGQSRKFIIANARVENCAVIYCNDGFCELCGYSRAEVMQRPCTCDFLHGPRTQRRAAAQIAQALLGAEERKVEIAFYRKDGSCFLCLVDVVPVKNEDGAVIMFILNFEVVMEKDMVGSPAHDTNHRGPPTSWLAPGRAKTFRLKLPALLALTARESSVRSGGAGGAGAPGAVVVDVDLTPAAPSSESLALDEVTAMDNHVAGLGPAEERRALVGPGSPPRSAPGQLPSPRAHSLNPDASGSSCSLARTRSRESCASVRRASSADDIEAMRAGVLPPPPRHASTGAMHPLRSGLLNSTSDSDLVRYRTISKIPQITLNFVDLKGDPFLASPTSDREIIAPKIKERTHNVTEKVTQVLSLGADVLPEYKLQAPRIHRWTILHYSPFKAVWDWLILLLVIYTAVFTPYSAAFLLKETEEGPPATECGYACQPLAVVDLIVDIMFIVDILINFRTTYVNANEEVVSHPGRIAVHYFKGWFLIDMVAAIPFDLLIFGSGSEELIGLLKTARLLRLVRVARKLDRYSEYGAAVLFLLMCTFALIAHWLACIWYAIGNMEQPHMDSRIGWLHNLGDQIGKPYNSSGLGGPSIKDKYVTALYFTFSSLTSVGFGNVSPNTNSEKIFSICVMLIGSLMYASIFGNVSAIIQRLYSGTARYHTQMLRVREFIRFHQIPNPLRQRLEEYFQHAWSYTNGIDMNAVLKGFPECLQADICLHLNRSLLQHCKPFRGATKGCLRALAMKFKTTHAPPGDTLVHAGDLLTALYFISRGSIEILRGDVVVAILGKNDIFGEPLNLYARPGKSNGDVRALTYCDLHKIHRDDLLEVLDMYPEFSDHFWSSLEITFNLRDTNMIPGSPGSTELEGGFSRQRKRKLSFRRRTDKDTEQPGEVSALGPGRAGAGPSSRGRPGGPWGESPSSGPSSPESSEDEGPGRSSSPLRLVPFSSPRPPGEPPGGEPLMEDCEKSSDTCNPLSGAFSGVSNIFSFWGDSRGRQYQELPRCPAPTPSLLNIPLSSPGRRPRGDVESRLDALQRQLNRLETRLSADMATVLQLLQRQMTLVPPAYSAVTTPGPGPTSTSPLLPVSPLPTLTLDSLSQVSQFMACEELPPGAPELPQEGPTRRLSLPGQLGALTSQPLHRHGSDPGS
CYP3A4, sequence (P08684 whole entry, canonical isoform): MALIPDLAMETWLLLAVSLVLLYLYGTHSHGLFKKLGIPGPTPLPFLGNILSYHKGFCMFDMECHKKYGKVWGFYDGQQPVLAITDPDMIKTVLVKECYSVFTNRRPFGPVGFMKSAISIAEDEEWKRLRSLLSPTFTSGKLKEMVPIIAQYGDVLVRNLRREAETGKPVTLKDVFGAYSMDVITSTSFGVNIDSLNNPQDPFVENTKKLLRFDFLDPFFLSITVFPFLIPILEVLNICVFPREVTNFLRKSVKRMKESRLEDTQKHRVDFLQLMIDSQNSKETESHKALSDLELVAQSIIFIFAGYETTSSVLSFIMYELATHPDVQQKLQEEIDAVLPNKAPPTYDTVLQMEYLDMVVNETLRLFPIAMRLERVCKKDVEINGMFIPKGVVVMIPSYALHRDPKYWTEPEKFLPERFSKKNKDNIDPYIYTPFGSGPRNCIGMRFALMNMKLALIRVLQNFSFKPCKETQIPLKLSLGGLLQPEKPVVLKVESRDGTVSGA

Structure (SMILES)	IC50 (hERG potassium channel) [nM]	IC50 (CYP3A4) [nM]	inhibition at 1 µM (Pim-1) [%]	inhibition at 1 µM (Pim-2) [%]	inhibition at 1 µM (Pim-3) [%]	inhibition at 1 µM (FLT3wt) [%]	inhibition at 1 µM (CDK2/E) [%]	inhibition at 1 µM (DYRK1) [%]	IC50 (MV4-11 cells; Homo sapiens, MV4-11, 72 h) [nM]	IC50 (HEL92 cells; Homo sapiens, 72 h) [nM]	IC50 (HepG2 cells; Homo sapiens, HepG2, 72 h) [nM]	IC50 (Jeko-1 cells; Homo sapiens, JeKo-1) [nM]	IC50 (MOLM16 cells) [nM]	IC50 (MOLM13 cells; Homo sapiens, MOLM-13) [nM]	KG-1 ED50 (KG-1 cells) [nM]	Flt3ITD % INH (1 μM) (FLT3-ITD) [%]	other results
CC(C)n1c(N[C@H]2CCNC2)nc2c([N+](=O)[O-])c(Br)c(Br)cc21 [Example 1BD]	4340	> 10000															Pim-1 % INH (1 μM) (Pim-1): >95%; Pim-2 % INH (1 μM) (Pim-2): 65%; Pim-3 % INH (1 μM) (Pim-3): 88%; Flt3wt % INH (1 μM) (FLT3wt): 28%; CDK2/E % INH (1 μM) (CDK2/E): <5%; DYRK1A % INH (1 μM) (DYRK1): 53%; IC50 (MV4-11 cells; 72 hours): 700 nM; IC50 (HEL92 cells; 72 hours): 5500 nM; IC50 (HepG2 cells; 72 hours): 3300 nM; IC50 (Jeko-1 cells): 1600 nM; IC50 (MOLM13 cells): 2100 nM
CCn1c(N2CCC[C@H](N)C2)nc2c(C#N)c(Br)c(Br)cc21 [Example 1DQ]			> 95	53	86	< 5	< 5	38	900	7600	1400	1600	100	2800	500		
CCn1c(N2CC[C@H](N)C2)nc2c(C#N)c(Br)c(Br)cc21 [Example 1DR]			> 95	59	91	18	28	65	1000	6200	1200	1300	100	3900	140	50	
CCn1c(N2CCC(N)CC2)nc2c(C#N)c(Br)c(Br)cc21 [Example 1DS]			> 95	54		8	47	23	800	5800	600	1400	320	9900	200		
CC(C)n1c(NC2CCC(N)CC2)nc2c(C#N)c(Br)c(Br)cc21 (centres unmarked) [Example 1DY]			> 95	18	62	< 5	7	20	2300			2800	1100	6400	1900		
CC(C)n1c(NCCOCCN)nc2c([N+](=O)[O-])c(Br)c(Br)cc21 [Example 22J, N-[2-(2-aminoethoxy)ethyl]-5,6-dibromo-4-nitro-1-(propan-2-yl)-1H-1,3-benzodiazol-2-amine]	11900	3300 to 10000	> 95	31	79	< 5	< 5	16	2800		4700					5	
